# Data taken from patent US7041706B2, “Method for treating crohn's disease” (priority 2002, dated 2006).
# System: Crohn's Disease (CD)
# Test: Oral limonene regimen in two patients suffering from Crohn's Disease (case reports, Examples 2 and 3)
# Details: for anal bleeding under prior medication regimen: Example 3 subject before limonene, combined regimen of six tablets ASACOL (mesalamine) daily and two 50 mg tablets IMURAN (azathioprine) daily
# Protocol: As used herein, “treatment” shall mean temporary or permanent alleviation or elimination of CD symptoms and/or intestinal damage.
# A preferred adult dose of limonene is about 400 to 1,000 milligrams, more preferably 1,000 mg, administered once daily, typically for a period of 10 to 30 days. Other dosing regimens, such as every other day and twice weekly regimens, may be desired, depending upon the patient. In fact, it will be appreciated by those of ordinary skill in the art that the amount of limonene, dosing schedule, and duration of treatment may vary depending upon the individual's age, weight, and severity of the CD.
# Upon diagnosis, the patient underwent a partial small bowel surgical resection wherein about one foot of intestine and appendix were surgically removed.
# To alleviate the symptoms of CD, the subject was taking the following prescriptions and over-the-counter medications: 1 Cortisone injection every six months; 1 tablet of 2.5 mg diphenoxylate/0.025 mg atropine every 8 hours as needed; twelve tablets (2.0 mg each) of IMODIUM (loperamide) every day as needed.
# Prior to treatment with the limonene regimen, the subject discontinued taking their prescription and OTC medications for CD except for one cortisone injection in April 2001 and about 1 to 2 tablets of IMODIUM (lopcramide) per month. They began taking 1000 mg d-limonene (98%) on March 2001. […] The subject then began taking 400 mg of d-limonene once a week for two weeks, followed by 400-mg d-limonene twice a week for three weeks. The subject was then put on a regimen of 1000 mg d-limonene take once a week for three weeks, increasing to 1000 mg twice a week for three weeks. After that series, the subject began taking 1000 mg d-limonene every other day for three weeks. The subject continued to take 1000 mg d-limonene twice a week for maintenance.
# A subject diagnosed with CD in November 1999 after undergoing a colonoscopy.
# The subject began treatment with the inventive limonene method in January 2001, taking 1000 mg of d-limonene daily. […] For maintenance therapy, the patient continued to take three 1000 mg capsules of d-limonene per week.
SMILES,anal bleeding under prior medication regimen,"adverse effect on first dosing (Example 2, subject with CD, 1000 mg d-limonene (98%) oral, regimen discontinued immediately)","anal bleeding (Example 2, subject with CD, during treatment, when taking 1000 mg d-limonene)","abdominal pain or cramping (Example 2 subject, during maintenance, 1000 mg d-limonene twice a week)","normal stools per day (Example 2 subject, during maintenance, 1000 mg d-limonene twice a week, about ten stools/day before treatment) [times a day]","anal bleeding (Example 3, subject with CD, about seven days after start of 1000 mg d-limonene daily)","stools per day (Example 3, subject with CD, about seven days after start of 1000 mg d-limonene daily, ten stools/day before)"
"Nc1ccc(O)c(C(=O)O)c1 [ASACOL, mesalamine, reference compound]","bleeding ceased for about six to eight months, and then reoccurred",,,,,,
"Cn1cnc([N+](=O)[O-])c1Sc1ncnc2nc[nH]c12 [IMURAN, azathioprine, reference compound]","bleeding ceased for about six to eight months, and then reoccurred",,,,,,
C=C(C)[C@H]1CC=C(C)CC1 [d-limonene],,severe acid reflux,stopped almost immediately,no abdominal pain or cramping,1 to 2,no anal bleeding,1–2 stools per day
